pEC50: −log10 of the molar value. Values joined by “and” are separate entries in the source; they are usually repeats but may differ in a detail not shown here. Equal values may be shown once.

Broadly, the pEC50 is −log10 of the EC50, conventionally taken in molar units. Read a low pEC50 as a high EC50.

T1 sequence (Q15303 26-1308): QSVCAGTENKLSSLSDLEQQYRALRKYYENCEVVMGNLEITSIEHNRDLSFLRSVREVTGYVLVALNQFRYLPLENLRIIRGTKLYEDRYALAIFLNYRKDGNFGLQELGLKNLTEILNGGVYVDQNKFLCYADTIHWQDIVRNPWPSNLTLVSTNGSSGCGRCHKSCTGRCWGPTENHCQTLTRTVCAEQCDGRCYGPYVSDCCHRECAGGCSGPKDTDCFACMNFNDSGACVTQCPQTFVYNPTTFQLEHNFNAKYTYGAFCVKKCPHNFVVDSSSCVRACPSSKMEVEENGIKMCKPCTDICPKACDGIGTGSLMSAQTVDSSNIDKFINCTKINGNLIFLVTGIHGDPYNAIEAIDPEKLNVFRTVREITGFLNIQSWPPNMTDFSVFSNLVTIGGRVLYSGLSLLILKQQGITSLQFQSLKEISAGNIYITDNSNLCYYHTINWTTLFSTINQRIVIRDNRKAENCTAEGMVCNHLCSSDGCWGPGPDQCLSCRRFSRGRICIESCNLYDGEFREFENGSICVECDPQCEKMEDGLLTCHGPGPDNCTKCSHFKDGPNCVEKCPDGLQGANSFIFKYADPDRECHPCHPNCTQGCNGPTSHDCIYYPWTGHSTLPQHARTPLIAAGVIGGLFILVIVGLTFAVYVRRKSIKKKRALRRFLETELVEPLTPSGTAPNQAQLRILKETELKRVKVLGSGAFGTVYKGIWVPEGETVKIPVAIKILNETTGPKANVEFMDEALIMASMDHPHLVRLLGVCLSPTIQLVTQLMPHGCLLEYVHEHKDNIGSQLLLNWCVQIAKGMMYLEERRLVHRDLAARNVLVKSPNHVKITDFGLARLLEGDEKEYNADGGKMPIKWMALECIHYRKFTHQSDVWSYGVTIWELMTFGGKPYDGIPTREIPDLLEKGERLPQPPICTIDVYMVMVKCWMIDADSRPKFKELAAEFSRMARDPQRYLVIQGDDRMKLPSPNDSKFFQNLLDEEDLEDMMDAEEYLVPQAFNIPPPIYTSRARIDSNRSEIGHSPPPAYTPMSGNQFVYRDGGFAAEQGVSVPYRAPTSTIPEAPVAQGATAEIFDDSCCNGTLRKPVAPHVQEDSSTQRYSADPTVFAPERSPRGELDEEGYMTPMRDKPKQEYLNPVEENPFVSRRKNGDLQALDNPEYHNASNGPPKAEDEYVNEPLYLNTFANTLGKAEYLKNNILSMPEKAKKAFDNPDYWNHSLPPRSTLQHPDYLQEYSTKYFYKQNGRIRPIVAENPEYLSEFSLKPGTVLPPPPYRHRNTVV
T1 sequence (Q15303 26-1308): as above

The first experiment concerns the target T1, ERBB4/ERBB4 (Homo sapiens, UniProt Q15303).
T1 construct: host or cells: U2OS (osteosarcoma cells), PathHunter engineered line
In words: PathHunter U2OS ERBB4/ERBB4 dimerization assay, 96-well dose-response. The experiment is classed as cell-based.
Conditions: not given
The protocol: PathHunter U2OS ERBB4/ERBB4 (osteosarcoma cells; Eurofins, 93-0961C3), U2OS ERBB2/ERBB4 (osteosarcoma cells; Eurofins, 493-0960C3), ERBB2/ERBB3 (osteosarcoma cells; Eurofins, 93-1042C3) and ERBB1/ERBB1 (osteosarcoma cells; Eurofins, 93-0989C3) dimerization cell lines were cultured according to the manufacturer’s instructions. Briefly, cells were cultured in Cell Culture Reagent 103 (Eurofins, 92-3103 G) supplemented with 250 µg/mL Hygromycin B (Eurofins, 92-0029) and 500 µg/mL G418 (Eurofins, 92-0030), and were maintained at 37 °C in humidified atmosphere of 5% CO2. HCFs (Innoprot, P10454) were cultured in fibroblast medium (Innoprot, P60108) supplemented with 10% (v/v) fetal bovine serum (FBS, Innoprot), 10% (v/v) fibroblast growth supplement (Innoprot), and 1% (v/v) penicillin/streptomycin solution (Innoprot). iAMs[33] (kindly provided by LUMC) were cultured in Advanced DMEM F-12 (Thermo Fisher Scientific, 12634028) supplemented with 2% (v/v) heat-inactivated FBS (Thermo Fisher Scientific, 10270106), 1% (v/v) penicillin/streptomycin (10,000 units/mL and 10 mg/mL respectively, Thermo Fisher Scientific, 15140122), 1× GlutaMAX (Thermo Fisher Scientific, 35050061), and 100 ng/mL doxycycline (Tocris, 4090) for proliferation. To induce differentiation, iAMs were transferred to medium without doxycycline.
U2OS ERBB4/ERBB4 dimerization cells were seeded at a density of 5 × 10^4 cells/well in 100 µL Cell Plating 0 Reagent, in white 96-well plates (PerkinElmer, 6005680) and incubated for 24 h at 37 °C, 5% CO2. […] Next, 110 µL PathHunter Flash Detection Reagent was added to each well and incubated at RT for 1 h after which the luminescence signal was measured using the Luminoskan Ascent (Thermo Fisher Scientific). […] The same experimental set-up was used for the U2OS ERBB2/ERBB4, U2OS ERBB2/ERBB3 and U2OS ERBB1/ERBB1 dimerization cell lines.
Category Parameter Description
Assay Type of assay PathHunter Dimerization assays provide a robust, highly sensitive and easy-to-use cell-based functional assay to study various protein activities in a cell. The assay s use
Enzyme Fragment Complementation technology, where the b-galactosidase (b-gal) enzyme is split into two fragments, ProLink and Enzyme Acceptor. Independently these fragments have no b-gal activity. However, when forced to complement through protein-protein interactions, they form an active b-gal enzyme. The PathHunter Dimerization assay detects ligand induced dimerization of two subunits of a receptor-dimer pair. The cells have been engineered to co-express one receptor subunit (ERBB4) fused to Enzyme
Donor, and a second dimer partner (ERBB4) fused to Enzyme Acceptor. Binding of an agonist to one receptor subunit induces it to interact with its dimer partner, forcing complementation of the two enzyme […]
functional enzyme that hydrolyzes a substrate to generate a chemiluminescent signal.
Target ErbB4 receptor (RTK receptor)
Primary measurement Detection of chemiluminescent signal, induced by small-molecule ErbB4 agonists
Key reagents PathHunter Dimerization ErbB4/ErbB4 Cell
Line (93-0961C3) - PathHunter Flash
Detection Kit (03 -0247) - AssayComplete Cell
AssayComplete Cell Detachment Reagent
(92-0009) - AssayComplete Thawing Reagent
T3 (92-4103TR) - AssayComplete Freezing
Assay protocol https://www.discoverx.com/catalog/pathhun
For the molecule `O=C1NCCCCC1Sc1nc2sc3c(c2c(=O)n1C1CCCC1)CCCC3` (stereo not drawn) [EF-5], the “induction of ERBB4 dimerization (in words)” value (“induction” below) is “induced ERBB4 dimerization in a concentration-dependent manner”.

In the case of `Cc1sc2nc(SC(C)C(=O)Nc3sccc3C(N)=O)n(CC(C)C)c(=O)c2c1C` (stereo not drawn) [EF-6], the “induction” value was “induced ERBB4 dimerization in a concentration-dependent manner”.

For the molecule `CC(Sc1nc2ccccc2c(=O)n1C1CCCC1)c1nc2ccccc2n1C(F)F` (stereo not drawn) [EF-7], the “induction” value is recorded as “induced ERBB4 dimerization in a concentration-dependent manner”.

The experiment is the same for the next values; noted with them: 3.125e-8 M; relative to signal with 0.1 µM NRG1; single biological replicates.
As to `O=C1NCCCCC1Sc1nc2sc3c(c2c(=O)n1C1CCCC1)CCCC3` (stereo not drawn) [EF-5], the ERBB4/ERBB4 dimerization signal was found to be 0.

In turn, `Cc1sc2nc(SC(C)C(=O)Nc3sccc3C(N)=O)n(CC(C)C)c(=O)c2c1C` (stereo not drawn) [EF-6] registered an ERBB4/ERBB4 dimerization signal of 0.

As to `CC(Sc1nc2ccccc2c(=O)n1C1CCCC1)c1nc2ccccc2n1C(F)F` (stereo not drawn) [EF-7], the ERBB4/ERBB4 dimerization signal is given as 0.

Still in this experiment, the particulars now being: 6.25e-8 M; relative to signal with 0.1 µM NRG1; single biological replicates.
For the molecule `O=C1NCCCCC1Sc1nc2sc3c(c2c(=O)n1C1CCCC1)CCCC3` (stereo not drawn) [EF-5], the ERBB4/ERBB4 dimerization signal was 0.55 and -5.82 and -1.2625 and -2.273.

On to `Cc1sc2nc(SC(C)C(=O)Nc3sccc3C(N)=O)n(CC(C)C)c(=O)c2c1C` (stereo not drawn) [EF-6], for which the ERBB4/ERBB4 dimerization signal is -10.54 and 0.126 and -1.899.

On to `CC(Sc1nc2ccccc2c(=O)n1C1CCCC1)c1nc2ccccc2n1C(F)F` (stereo not drawn) [EF-7], for which the ERBB4/ERBB4 dimerization signal is 1.834 and 3.035 and 0.03 and -1.937.

Staying with this experiment, now noted: 1.25e-7 M; relative to signal with 0.1 µM NRG1; single biological replicates.
Regarding `O=C1NCCCCC1Sc1nc2sc3c(c2c(=O)n1C1CCCC1)CCCC3` (stereo not drawn) [EF-5], the ERBB4/ERBB4 dimerization signal is -0.81 and -3.79 and -1.2155 and 0.9982.

Take `Cc1sc2nc(SC(C)C(=O)Nc3sccc3C(N)=O)n(CC(C)C)c(=O)c2c1C` (stereo not drawn) [EF-6]: the ERBB4/ERBB4 dimerization signal was -0.74 and -11.14 and 0.573 and -2.081.

For `CC(Sc1nc2ccccc2c(=O)n1C1CCCC1)c1nc2ccccc2n1C(F)F` (stereo not drawn) [EF-7], the ERBB4/ERBB4 dimerization signal was -0.545 and 2.505 and -0.7885 and 2.028.

The same experiment, now with this note: 2.5e-7 M; relative to signal with 0.1 µM NRG1; single biological replicates.
As to `O=C1NCCCCC1Sc1nc2sc3c(c2c(=O)n1C1CCCC1)CCCC3` (stereo not drawn) [EF-5], the ERBB4/ERBB4 dimerization signal was 2.18 and -1.68 and -1.408 and 0.7189.

Consider `Cc1sc2nc(SC(C)C(=O)Nc3sccc3C(N)=O)n(CC(C)C)c(=O)c2c1C` (stereo not drawn) [EF-6], for which the ERBB4/ERBB4 dimerization signal was -11.05 and 1.316 and 0.08162.

For the molecule `CC(Sc1nc2ccccc2c(=O)n1C1CCCC1)c1nc2ccccc2n1C(F)F` (stereo not drawn) [EF-7], the ERBB4/ERBB4 dimerization signal was 4.185 and 4.81 and -0.3825 and 0.1978.

The experiment is the same for the next values; noted with them: 5e-7 M; relative to signal with 0.1 µM NRG1; single biological replicates.
As to `O=C1NCCCCC1Sc1nc2sc3c(c2c(=O)n1C1CCCC1)CCCC3` (stereo not drawn) [EF-5], the ERBB4/ERBB4 dimerization signal was 0.6 and -0.22 and -2.045 and 0.5619.

As for `Cc1sc2nc(SC(C)C(=O)Nc3sccc3C(N)=O)n(CC(C)C)c(=O)c2c1C` (stereo not drawn) [EF-6], the ERBB4/ERBB4 dimerization signal was -1.14 and -8.91 and 2.656 and 0.4928.

Regarding `CC(Sc1nc2ccccc2c(=O)n1C1CCCC1)c1nc2ccccc2n1C(F)F` (stereo not drawn) [EF-7], the ERBB4/ERBB4 dimerization signal was -2.369 and -1.66 and -2.1805 and 0.9417.

Still in this experiment, the particulars now being: 1e-6 M; relative to signal with 0.1 µM NRG1; single biological replicates.
For the molecule `O=C1NCCCCC1Sc1nc2sc3c(c2c(=O)n1C1CCCC1)CCCC3` (stereo not drawn) [EF-5], the ERBB4/ERBB4 dimerization signal is 1.62 and -1.86 and -1.923 and 1.909.

Turning to `Cc1sc2nc(SC(C)C(=O)Nc3sccc3C(N)=O)n(CC(C)C)c(=O)c2c1C` (stereo not drawn) [EF-6], the ERBB4/ERBB4 dimerization signal is -7.05 and 2.748 and 1.042.

On to `CC(Sc1nc2ccccc2c(=O)n1C1CCCC1)c1nc2ccccc2n1C(F)F` (stereo not drawn) [EF-7], for which the ERBB4/ERBB4 dimerization signal is -1.082 and -1.615 and -1.204 and 2.348.

The same experiment, now with this note: 2e-6 M; relative to signal with 0.1 µM NRG1; single biological replicates.
For `O=C1NCCCCC1Sc1nc2sc3c(c2c(=O)n1C1CCCC1)CCCC3` (stereo not drawn) [EF-5], the ERBB4/ERBB4 dimerization signal was 0.85 and -0.68 and -0.804 and 3.362.

With `Cc1sc2nc(SC(C)C(=O)Nc3sccc3C(N)=O)n(CC(C)C)c(=O)c2c1C` (stereo not drawn) [EF-6], the ERBB4/ERBB4 dimerization signal was -1.29 and -3.55 and 2.61 and 5.158.

For the molecule `CC(Sc1nc2ccccc2c(=O)n1C1CCCC1)c1nc2ccccc2n1C(F)F` (stereo not drawn) [EF-7], the ERBB4/ERBB4 dimerization signal was -0.26 and -0.926 and -0.8585 and 4.47.

The same experiment, now with this note: 4e-6 M; relative to signal with 0.1 µM NRG1; single biological replicates.
Take `O=C1NCCCCC1Sc1nc2sc3c(c2c(=O)n1C1CCCC1)CCCC3` (stereo not drawn) [EF-5]: the ERBB4/ERBB4 dimerization signal was 1.61 and 5.16 and 4.378 and 4.178.

As for `Cc1sc2nc(SC(C)C(=O)Nc3sccc3C(N)=O)n(CC(C)C)c(=O)c2c1C` (stereo not drawn) [EF-6], the ERBB4/ERBB4 dimerization signal is 3.35 and 5.191 and 6.31.

Turning to `CC(Sc1nc2ccccc2c(=O)n1C1CCCC1)c1nc2ccccc2n1C(F)F` (stereo not drawn) [EF-7], the ERBB4/ERBB4 dimerization signal is 0.729 and 3.237 and 0.665 and 4.903.

The experiment is the same for the next values; noted with them: 8e-6 M; relative to signal with 0.1 µM NRG1; single biological replicates.
`O=C1NCCCCC1Sc1nc2sc3c(c2c(=O)n1C1CCCC1)CCCC3` (stereo not drawn) [EF-5]: the ERBB4/ERBB4 dimerization signal was 4.54 and 3.781 and 4.611.

For the molecule `Cc1sc2nc(SC(C)C(=O)Nc3sccc3C(N)=O)n(CC(C)C)c(=O)c2c1C` (stereo not drawn) [EF-6], the ERBB4/ERBB4 dimerization signal is 7.22 and 8.65 and 7.634 and 6.661.

For `CC(Sc1nc2ccccc2c(=O)n1C1CCCC1)c1nc2ccccc2n1C(F)F` (stereo not drawn) [EF-7], the ERBB4/ERBB4 dimerization signal was 3.996 and 7.56 and 2.421 and 5.8011.

Still in this experiment, the particulars now being: 1.6e-5 M; relative to signal with 0.1 µM NRG1; single biological replicates.
Regarding `O=C1NCCCCC1Sc1nc2sc3c(c2c(=O)n1C1CCCC1)CCCC3` (stereo not drawn) [EF-5], the ERBB4/ERBB4 dimerization signal is 16.34 and 17.63 and 4.256 and 4.3885.

Consider `Cc1sc2nc(SC(C)C(=O)Nc3sccc3C(N)=O)n(CC(C)C)c(=O)c2c1C` (stereo not drawn) [EF-6], for which the ERBB4/ERBB4 dimerization signal is 15.88 and 10.304 and 5.283.

Consider `CC(Sc1nc2ccccc2c(=O)n1C1CCCC1)c1nc2ccccc2n1C(F)F` (stereo not drawn) [EF-7], for which the ERBB4/ERBB4 dimerization signal is 6.204 and 12.704 and 5.9735 and 4.731.

Still in this experiment, the particulars now being: 3.2e-5 M; relative to signal with 0.1 µM NRG1; single biological replicates.
As to `O=C1NCCCCC1Sc1nc2sc3c(c2c(=O)n1C1CCCC1)CCCC3` (stereo not drawn) [EF-5], the ERBB4/ERBB4 dimerization signal is 15.88 and 18.62 and 11.2465 and 8.67.

For `Cc1sc2nc(SC(C)C(=O)Nc3sccc3C(N)=O)n(CC(C)C)c(=O)c2c1C` (stereo not drawn) [EF-6], the ERBB4/ERBB4 dimerization signal was 10.39 and 15.72 and 13.149 and 5.2549.

For the molecule `CC(Sc1nc2ccccc2c(=O)n1C1CCCC1)c1nc2ccccc2n1C(F)F` (stereo not drawn) [EF-7], the ERBB4/ERBB4 dimerization signal was 9.166 and 15.395 and 6.6065 and 4.169.

The same experiment, now with this note: Fig. 1 panels b, f-l.
With `O=C1NCCCCC1Sc1nc2sc3c(c2c(=O)n1C1CCCC1)CCCC3` (stereo not drawn) [EF-5], the negative-log EC50 (pEC50) is 5.17.

`Cc1sc2nc(SC(C)C(=O)Nc3sccc3C(N)=O)n(CC(C)C)c(=O)c2c1C` (stereo not drawn) [EF-6] gave a pEC50 of 5.13.

`CC(Sc1nc2ccccc2c(=O)n1C1CCCC1)c1nc2ccccc2n1C(F)F` (stereo not drawn) [EF-7] gave a pEC50 of 5.36.
